In patent US11739098B2 (BRISTOL-MYERS SQUIBB COMPANY, priority 2017, dated 2023) one finds IC50 data, which are given here for 13 molecules.

What all share (assay type): cell-based
One experiment has as its target T1, human TLR7 (Homo sapiens, UniProt Q9NYK1).
T1 construct: host or cells: HEK-Blue cells (HEK293-derived reporter line)
T1 sequence (Q9NYK1 27-1049): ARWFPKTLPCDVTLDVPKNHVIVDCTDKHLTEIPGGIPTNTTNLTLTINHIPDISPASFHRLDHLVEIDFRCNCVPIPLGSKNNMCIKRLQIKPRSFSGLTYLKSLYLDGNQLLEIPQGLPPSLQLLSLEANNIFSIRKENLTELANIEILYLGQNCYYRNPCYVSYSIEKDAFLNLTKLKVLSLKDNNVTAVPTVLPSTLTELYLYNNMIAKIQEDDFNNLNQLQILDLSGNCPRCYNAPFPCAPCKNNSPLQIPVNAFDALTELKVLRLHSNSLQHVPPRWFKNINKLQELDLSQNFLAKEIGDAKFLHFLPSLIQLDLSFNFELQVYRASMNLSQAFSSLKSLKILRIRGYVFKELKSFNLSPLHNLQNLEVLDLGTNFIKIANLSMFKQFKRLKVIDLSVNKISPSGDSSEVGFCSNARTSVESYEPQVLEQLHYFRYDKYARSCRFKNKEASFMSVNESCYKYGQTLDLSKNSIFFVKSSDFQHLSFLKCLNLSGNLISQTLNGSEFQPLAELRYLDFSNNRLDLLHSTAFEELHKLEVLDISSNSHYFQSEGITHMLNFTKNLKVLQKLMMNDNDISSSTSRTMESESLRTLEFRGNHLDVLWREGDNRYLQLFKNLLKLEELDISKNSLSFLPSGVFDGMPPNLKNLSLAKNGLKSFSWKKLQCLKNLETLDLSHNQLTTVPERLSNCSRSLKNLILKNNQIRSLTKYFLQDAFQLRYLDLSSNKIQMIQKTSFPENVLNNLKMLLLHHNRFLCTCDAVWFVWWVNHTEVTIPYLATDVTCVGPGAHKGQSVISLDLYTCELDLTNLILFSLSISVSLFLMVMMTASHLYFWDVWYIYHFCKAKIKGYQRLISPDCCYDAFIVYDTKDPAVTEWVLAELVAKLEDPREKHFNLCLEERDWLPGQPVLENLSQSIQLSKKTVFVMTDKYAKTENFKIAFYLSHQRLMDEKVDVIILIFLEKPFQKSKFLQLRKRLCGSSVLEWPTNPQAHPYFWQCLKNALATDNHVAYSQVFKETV
Briefly: TLR7 inhibition reporter assay (HEK-Blue cells, SEAP reporter, gardiquimod stimulation). The settings on record: HEK-Blue cells overexpressing human TLR7, SEAP reporter, gardiquimod 7.5 μM. Put shortly: (§1)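 HEK-Blue cells overexpressing the receptor, with NF-κB/AP-1-driven SEAP, were pre-treated 30 min at room temperature with compound (0.05 nM–50 μM), then stimulated with gardiquimod 7.5 μM (TLR7), R848 15.9 μM (TLR8) or ODN2006 5 nM (TLR9). SEAP was read after 22 h at 37 °C as percent inhibition.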
(In general: Reporter assays use an easily measured gene product as a stand-in for the process of interest.)

A further experiment has as its target T2, human TLR8 (Homo sapiens, UniProt Q9NR97).
T2 construct: host or cells: HEK-Blue cells (HEK293-derived reporter line)
T2 sequence (Q9NR97 27-1041): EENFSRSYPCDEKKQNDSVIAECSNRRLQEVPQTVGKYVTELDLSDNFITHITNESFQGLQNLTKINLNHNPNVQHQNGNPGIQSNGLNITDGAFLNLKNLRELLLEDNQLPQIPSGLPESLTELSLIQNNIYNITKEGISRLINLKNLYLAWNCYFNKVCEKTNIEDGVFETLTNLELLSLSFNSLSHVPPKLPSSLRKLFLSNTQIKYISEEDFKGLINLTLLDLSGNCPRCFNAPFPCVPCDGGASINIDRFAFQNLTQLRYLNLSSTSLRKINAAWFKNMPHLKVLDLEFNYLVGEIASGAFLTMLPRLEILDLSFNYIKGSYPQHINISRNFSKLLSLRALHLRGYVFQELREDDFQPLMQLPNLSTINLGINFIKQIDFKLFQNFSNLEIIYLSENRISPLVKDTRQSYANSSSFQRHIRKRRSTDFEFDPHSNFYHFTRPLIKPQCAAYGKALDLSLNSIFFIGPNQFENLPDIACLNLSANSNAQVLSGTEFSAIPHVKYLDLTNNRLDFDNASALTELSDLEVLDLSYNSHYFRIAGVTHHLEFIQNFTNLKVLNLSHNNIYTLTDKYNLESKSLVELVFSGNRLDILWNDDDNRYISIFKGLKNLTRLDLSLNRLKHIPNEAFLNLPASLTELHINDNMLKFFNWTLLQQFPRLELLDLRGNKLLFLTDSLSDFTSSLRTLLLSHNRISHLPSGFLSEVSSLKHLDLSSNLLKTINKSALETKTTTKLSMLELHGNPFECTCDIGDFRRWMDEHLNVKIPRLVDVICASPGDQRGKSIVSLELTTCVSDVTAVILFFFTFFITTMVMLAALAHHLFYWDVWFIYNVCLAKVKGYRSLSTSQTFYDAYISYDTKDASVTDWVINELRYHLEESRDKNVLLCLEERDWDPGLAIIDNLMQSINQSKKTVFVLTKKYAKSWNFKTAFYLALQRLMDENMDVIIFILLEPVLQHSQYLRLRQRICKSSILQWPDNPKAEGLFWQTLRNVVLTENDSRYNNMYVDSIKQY
In words: TLR8 inhibition reporter assay (HEK-Blue cells, SEAP reporter, R848 stimulation). The settings on record: HEK-Blue cells overexpressing human TLR8, SEAP reporter, R848 15.9 μM. Put shortly: as §1

Another experiment has as its target T3, human TLR9 (Homo sapiens, UniProt Q9NR96).
T3 construct: host or cells: HEK-Blue cells (HEK293-derived reporter line)
T3 sequence (Q9NR96 26-1032): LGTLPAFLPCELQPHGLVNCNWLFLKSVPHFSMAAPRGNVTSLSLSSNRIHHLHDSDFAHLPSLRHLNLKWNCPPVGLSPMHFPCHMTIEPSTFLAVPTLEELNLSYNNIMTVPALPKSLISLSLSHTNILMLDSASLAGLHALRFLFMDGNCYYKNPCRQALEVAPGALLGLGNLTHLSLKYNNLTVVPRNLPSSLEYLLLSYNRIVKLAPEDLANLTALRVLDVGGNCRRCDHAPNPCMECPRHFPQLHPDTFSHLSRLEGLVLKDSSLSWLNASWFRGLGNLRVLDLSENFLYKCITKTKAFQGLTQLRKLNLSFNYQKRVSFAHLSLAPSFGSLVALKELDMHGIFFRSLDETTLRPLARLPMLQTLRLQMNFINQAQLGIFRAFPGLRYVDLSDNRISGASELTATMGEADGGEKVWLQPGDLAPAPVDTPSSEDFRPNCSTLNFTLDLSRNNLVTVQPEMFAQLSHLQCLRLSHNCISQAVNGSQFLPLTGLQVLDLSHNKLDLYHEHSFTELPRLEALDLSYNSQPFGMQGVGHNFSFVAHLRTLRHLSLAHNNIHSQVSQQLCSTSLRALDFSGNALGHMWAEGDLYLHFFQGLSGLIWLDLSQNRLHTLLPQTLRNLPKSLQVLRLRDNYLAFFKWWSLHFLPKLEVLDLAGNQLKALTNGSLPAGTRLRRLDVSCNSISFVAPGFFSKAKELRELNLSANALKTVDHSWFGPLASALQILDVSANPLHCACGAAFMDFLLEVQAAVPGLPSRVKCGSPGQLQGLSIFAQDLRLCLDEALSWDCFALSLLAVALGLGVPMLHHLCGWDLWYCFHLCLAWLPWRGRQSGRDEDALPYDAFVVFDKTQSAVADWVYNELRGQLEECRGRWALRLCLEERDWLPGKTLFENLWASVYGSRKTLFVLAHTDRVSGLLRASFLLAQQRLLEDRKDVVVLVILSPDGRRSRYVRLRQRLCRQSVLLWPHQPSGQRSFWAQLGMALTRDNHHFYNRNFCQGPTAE
Briefly: TLR9 inhibition reporter assay (HEK-Blue cells, SEAP reporter, ODN2006 stimulation). The conditions noted are these: HEK-Blue cells overexpressing human TLR9, SEAP reporter, ODN2006 5 nM. Put shortly: as §1

Consider `CCc1c(-c2ccnc3[nH]cc(CC)c23)[nH]c2ccc(C3CCNCC3)cc12` [Example 220, 3-ethyl-4-(3-ethyl-5-(piperidin-4-yl)-1H-indol-2-yl)-1H-pyrrolo[2,3-b]pyridine], for which the IC50 – broadly, the point on the concentration scale where inhibition reaches its midpoint – at human TLR7 was in the range of 0.1 to 1 µM; against human TLR8 it was 0.1 to 1 µM; at human TLR9, 1 to 50 µM.
Turning to `CC(C)c1c(-c2cnc3nccn3c2)[nH]c2ccc(C3CCN(CC(C)(C)O)CC3)cc12` [Example 761, 1-(4-(2-(imidazo[1,2-a]pyrimidin-6-yl)-3-isopropyl-1H-indol-5-yl)piperidin-1-yl)-2-methylpropan-2-ol], the half-inhibitory concentration (IC50) on human TLR7 is less than 0.1 µM; on human TLR8, 0.1 to 1 µM; at human TLR9, 0.1 to 1 µM.
As to `Cc1nc[nH]c1CN1CCC(c2ccc3[nH]c(-c4ccnc5[nH]cnc45)c(C(C)C)c3c2)CC1` [Example 861, 7-(3-isopropyl-5-(1-((4-methyl-1H-imidazol-5-yl)methyl)piperidin-4-yl)-1H-indol-2-yl)-3H-imidazo[4,5-b]pyridine], the concentration for half-maximal inhibition (IC50) at human TLR7 is less than 0.1 µM; against human TLR8, less than 0.1 µM; on human TLR9 it was 0.1 to 1 µM.
`CNCC(=O)N1CCC(c2ccc3[nH]c(-c4cc(C)c5nccn5c4)c(C(C)C)c3c2)CC1` [Example 557, 1-(4-(3-isopropyl-2-(8-methylimidazo[1,2-a]pyridin-6-yl)-1H-indol-5-yl)piperidin-1-yl)-2-(methylamino)ethan-1-one]: the IC50 against human TLR7 is less than 0.1 µM; at human TLR8, less than 0.1 µM; against human TLR9, 0.1 to 1 µM.
For `Cc1cc(-c2[nH]c3ccc(C4CCN(C(=O)CN(C)C)CC4)cc3c2C(C)C)cc2[nH]c(=O)oc12` [Example 490, 5-(5-(1-(dimethylglycyl)piperidin-4-yl)-3-isopropyl-1H-indol-2-yl)-7-methylbenzo[d]oxazol-2(3H)-one], the IC50 lay in the range of 0.1 to 1 µM against human TLR7, 0.1 to 1 µM at human TLR8 and 1 to 50 µM against human TLR9.
For `COc1cc(-c2[nH]c3ccc(C4CCN(C(=O)CN(C)C)CC4)cc3c2C(C)C)cc2ncnn12` [Example 532, 2-(dimethylamino)-1-(4-(3-isopropyl-2-(5-methoxy-[1,2,4]triazolo[1,5-a]pyridin-7-yl)-1H-indol-5-yl)piperidin-1-yl)ethan-1-one], the values for the half-maximal inhibitory concentration (IC50) on human TLR7, on human TLR8 and on human TLR9 were less than 0.1 µM, less than 0.1 µM and 1 to 50 µM, respectively.
With `Cc1c(-c2ccnc3[nH]cc(C(C)C)c23)[nH]c2ccc(C3CCNCC3)cc12` [Example 214, 3-isopropyl-4-(3-methyl-5-(piperidin-4-yl)-1H-indol-2-yl)-1H-pyrrolo[2,3-b]pyridine], the values for the 50% inhibitory concentration (IC50) on human TLR7, against human TLR8 and on human TLR9 were 1 to 50 µM, 1 to 50 µM and 0.1 to 1 µM, respectively.
As for `CCc1c(-c2ccnc3[nH]ncc23)[nH]c2ccc(C3CCNCC3)c(C)c12` [Example 254, 4-(3-ethyl-4-methyl-5-(piperidin-4-yl)-1H-indol-2-yl)-1H-pyrazolo[3,4-b]pyridine], the values for the IC50 at human TLR7, against human TLR8 and at human TLR9 were 1 to 50 µM, 1 to 50 µM and more than 50 µM, respectively.
Consider `Cc1cn2cc(-c3[nH]c4ccc(C5CCN(C6COC6)CC5)cc4c3C(C)C)cc(C)c2n1` [Example 717, 6-(3-isopropyl-5-(1-(oxetan-3-yl)piperidin-4-yl)-1H-indol-2-yl)-2,8-dimethylimidazo[1,2-a]pyridine], for which the IC50 on human TLR7 is less than 0.1 µM; against human TLR8, 0.1 to 1 µM; at human TLR9 it was 0.1 to 1 µM.
For the molecule `CC(C)c1c(-c2ccnc3[nH]ncc23)[nH]c2ccc(C3CCN(C(=O)C4CCCNC4)CC3)cc12` (stereo not drawn) [Example 636, (4-(3-isopropyl-2-(1H-pyrazolo[3,4-b]pyridin-4-yl)-1H-indol-5-yl)piperidin-1-yl)(piperidin-3-yl)methanone], the figures for the IC50 at human TLR7, on human TLR8 and against human TLR9 were less than 0.1 µM, less than 0.1 µM and 0.1 to 1 µM, respectively.
Turning to `CC(C)c1c(-c2cn(C)c3ncccc23)[nH]c2ccc(C3CCNCC3)cc12` [Example 48, 3-(3-isopropyl-5-(piperidin-4-yl)-1H-indol-2-yl)-1-methyl-1H-pyrrolo[2,3-b]pyridine], the IC50 against human TLR7 is less than 0.1 µM; against human TLR8, less than 0.1 µM; on human TLR9, 1 to 50 µM.
Regarding `Cc1c(-c2[nH]c3ccc(C4CCNCC4)cc3c2C(C)C)cn2ccnc2c1C(C)C` [Example 273, 8-isopropyl-6-(3-isopropyl-5-(piperidin-4-yl)-1H-indol-2-yl)-7-methylimidazo[1,2-a]pyridine], the IC50 against human TLR7 was less than 0.1 µM; against human TLR8, 0.1 to 1 µM; against human TLR9, 0.1 to 1 µM.
For `CCN1CCC(N2CCC(c3ccc4[nH]c(-c5ccnc6[nH]ccc56)c(C)c4c3)CC2)CC1` [Example 811, 4-(5-(1′-ethyl-[1,4′-bipiperidin]-4-yl)-3-methyl-1H-indol-2-yl)-1H-pyrrolo[2,3-b]pyridine], the IC50 on human TLR7, against human TLR8 and against human TLR9 was less than 0.1 µM throughout.
